The NIST ThermoML archive (doi:10.1021/je200646r)
Numbers after ± are expanded uncertainties.

Experiments:
[1] = refractive index (Na D-line) (dimensionless); settings: 293.15 K; 101.33 kPa; Liquid; Standard Abbe refractometry
[2] = 293.15 K; 101.33 kPa; Liquid; Vibrating tube method

CCCCCCCCCCCC [dodecane]
refractive index [1]: 1.42155 ± 0.00045 | mass density [2]: 749.6 ± 0.31 kg/m3

CCO [ethanol]
refractive index [1]: 1.36162 ± 0.0004 | mass density [2]: 792.05 ± 0.15 kg/m3

CO [methanol]
refractive index [1]: 1.32862 ± 0.0004 | mass density [2]: 791.46 ± 0.15 kg/m3

CC(C)O [propan-2-ol]
refractive index [1]: 1.37709 ± 0.0004 | mass density [2]: 785.46 ± 0.15 kg/m3
